The values below come from paper PMC5478271, “Chemical structure-guided design of dynapyrazoles, cell-permeable dynein inhibitors with a unique mode of action” (eLife, 2017).

Where two headings read alike, the source gives them in different places.

The target in the assay is T1, human cytoplasmic dynein 1 (GFP-dynein 1, AA 1320–4646) (Homo sapiens, UniProt Q14204).
T1 construct: (AA 1320–4646 with additional valine [at position 4647], uniprot Q14204); protein A tag (followed by TEV-cleavable linker) (N, cleaved yes); made in house; host or cells: insect cells (baculovirus)
T1 sequence (Q14204 with tags, fused parts or gaps): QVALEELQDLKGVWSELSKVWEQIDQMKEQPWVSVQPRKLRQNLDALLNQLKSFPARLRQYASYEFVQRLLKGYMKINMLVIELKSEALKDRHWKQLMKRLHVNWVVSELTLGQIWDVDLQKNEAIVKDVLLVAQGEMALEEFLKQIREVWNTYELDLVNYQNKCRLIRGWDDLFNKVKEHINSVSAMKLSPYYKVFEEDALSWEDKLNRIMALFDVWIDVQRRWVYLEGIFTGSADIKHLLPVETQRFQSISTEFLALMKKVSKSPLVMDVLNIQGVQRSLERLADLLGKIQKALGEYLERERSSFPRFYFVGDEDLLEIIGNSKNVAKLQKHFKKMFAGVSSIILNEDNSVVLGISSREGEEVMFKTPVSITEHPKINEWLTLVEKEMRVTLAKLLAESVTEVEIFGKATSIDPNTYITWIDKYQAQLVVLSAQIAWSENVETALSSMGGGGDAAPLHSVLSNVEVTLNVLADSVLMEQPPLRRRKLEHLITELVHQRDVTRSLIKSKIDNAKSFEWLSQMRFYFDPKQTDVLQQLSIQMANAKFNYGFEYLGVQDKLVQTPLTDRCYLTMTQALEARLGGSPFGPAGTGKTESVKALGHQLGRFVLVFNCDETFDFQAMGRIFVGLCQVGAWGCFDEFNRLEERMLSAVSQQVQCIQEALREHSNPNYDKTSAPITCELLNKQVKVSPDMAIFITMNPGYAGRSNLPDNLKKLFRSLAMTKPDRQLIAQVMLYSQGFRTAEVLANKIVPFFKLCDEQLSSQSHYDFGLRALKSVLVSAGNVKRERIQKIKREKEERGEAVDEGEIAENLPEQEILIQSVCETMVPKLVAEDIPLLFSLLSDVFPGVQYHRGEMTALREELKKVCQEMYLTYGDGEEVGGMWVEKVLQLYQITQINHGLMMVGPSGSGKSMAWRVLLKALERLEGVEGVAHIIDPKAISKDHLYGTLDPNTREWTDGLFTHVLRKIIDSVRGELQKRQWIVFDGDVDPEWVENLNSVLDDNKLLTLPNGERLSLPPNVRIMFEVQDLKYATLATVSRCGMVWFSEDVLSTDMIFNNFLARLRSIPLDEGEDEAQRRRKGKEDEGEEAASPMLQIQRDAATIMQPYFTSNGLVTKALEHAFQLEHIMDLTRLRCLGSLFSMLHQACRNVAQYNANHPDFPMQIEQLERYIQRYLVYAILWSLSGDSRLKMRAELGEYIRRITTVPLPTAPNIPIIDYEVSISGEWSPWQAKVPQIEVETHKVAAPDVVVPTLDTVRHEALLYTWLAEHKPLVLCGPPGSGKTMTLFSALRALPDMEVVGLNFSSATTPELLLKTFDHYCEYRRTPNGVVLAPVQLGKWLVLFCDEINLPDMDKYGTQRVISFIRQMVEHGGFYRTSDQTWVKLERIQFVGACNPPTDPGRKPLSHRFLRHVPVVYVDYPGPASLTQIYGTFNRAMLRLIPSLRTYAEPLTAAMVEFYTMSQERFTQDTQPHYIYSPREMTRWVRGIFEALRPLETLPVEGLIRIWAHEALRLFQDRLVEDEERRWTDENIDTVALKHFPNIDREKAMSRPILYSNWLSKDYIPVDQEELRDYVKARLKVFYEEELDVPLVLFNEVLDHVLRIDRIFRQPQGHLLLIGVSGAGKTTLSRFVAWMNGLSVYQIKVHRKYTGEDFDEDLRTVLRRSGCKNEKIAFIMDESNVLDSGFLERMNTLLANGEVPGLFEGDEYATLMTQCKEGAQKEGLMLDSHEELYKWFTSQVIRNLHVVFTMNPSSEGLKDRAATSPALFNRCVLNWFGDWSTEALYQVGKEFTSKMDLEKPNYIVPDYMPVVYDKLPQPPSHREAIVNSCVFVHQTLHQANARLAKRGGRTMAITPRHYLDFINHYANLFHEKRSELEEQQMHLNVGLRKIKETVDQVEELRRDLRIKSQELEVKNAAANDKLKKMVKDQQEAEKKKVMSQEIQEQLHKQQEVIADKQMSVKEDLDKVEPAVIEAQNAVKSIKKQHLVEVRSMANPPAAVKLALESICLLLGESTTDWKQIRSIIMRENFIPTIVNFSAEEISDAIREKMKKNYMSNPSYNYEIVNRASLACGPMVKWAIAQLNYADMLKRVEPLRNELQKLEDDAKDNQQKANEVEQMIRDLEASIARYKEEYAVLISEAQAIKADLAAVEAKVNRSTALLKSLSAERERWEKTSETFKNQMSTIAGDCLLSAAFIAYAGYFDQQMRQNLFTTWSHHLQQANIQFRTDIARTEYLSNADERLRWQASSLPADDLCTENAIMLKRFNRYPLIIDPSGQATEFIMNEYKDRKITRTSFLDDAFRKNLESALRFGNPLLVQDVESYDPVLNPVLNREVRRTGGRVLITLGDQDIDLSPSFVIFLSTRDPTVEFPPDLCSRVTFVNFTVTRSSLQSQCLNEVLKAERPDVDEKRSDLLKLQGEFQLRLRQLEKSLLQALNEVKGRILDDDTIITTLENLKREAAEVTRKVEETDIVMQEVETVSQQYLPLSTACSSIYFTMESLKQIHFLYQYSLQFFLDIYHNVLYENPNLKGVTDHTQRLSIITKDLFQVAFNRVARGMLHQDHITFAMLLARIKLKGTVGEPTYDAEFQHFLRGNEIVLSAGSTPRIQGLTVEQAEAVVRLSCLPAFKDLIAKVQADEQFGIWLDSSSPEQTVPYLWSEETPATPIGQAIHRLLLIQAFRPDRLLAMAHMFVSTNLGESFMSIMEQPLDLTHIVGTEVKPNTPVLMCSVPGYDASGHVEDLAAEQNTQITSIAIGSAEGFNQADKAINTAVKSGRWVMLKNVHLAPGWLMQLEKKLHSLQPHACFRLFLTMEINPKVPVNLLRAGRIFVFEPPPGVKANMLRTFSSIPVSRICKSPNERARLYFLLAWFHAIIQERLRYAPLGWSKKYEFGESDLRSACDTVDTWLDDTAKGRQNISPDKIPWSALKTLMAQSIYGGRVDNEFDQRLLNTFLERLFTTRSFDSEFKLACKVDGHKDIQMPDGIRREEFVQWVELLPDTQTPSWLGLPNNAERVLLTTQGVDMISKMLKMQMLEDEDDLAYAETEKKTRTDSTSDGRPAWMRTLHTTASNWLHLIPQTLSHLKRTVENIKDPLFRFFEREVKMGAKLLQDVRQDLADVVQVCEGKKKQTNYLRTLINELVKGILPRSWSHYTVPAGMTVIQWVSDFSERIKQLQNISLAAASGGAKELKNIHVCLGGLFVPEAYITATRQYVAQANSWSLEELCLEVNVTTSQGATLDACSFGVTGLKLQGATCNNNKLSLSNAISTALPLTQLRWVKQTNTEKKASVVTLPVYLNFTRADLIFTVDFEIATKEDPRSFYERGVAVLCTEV
The assay can be described thus: Microtubule gliding (motility) assay with GFP-dynein 1. The assay is classed as biochemical. The text has this:
To examine the inhibition of dynein 1 by dynapyrazole-A in vitro we generated recombinant human protein. We expressed and purified a GFP-tagged human dynein 1 (AA 1320–4646) construct similar to the one we used for GFP-dynein 2. […] GFP-dynein 1 moves microtubules at 508 ± 60 nm/s (n = 5 independent experiments, 191 microtubules analyzed), a velocity expected based on studies of other mammalian dynein 1 homologs ([Yamada et al., 2008]). Under these conditions, ~97% of the filaments analyzed had velocities >50 nm/s (Figure 5—figure supplement 1). […] As has been previously noted for ciliobrevin D, the potency of dynapyrazole-A was sensitive to the protein (e.g. blocking agent, serum) concentration in solution (Figure 5—figure supplement 4), likely due to the hydrophobicity of these compounds (calculated logarithm of octanol:water partition coefficient [ClogP]: ciliobrevin D: 4.5; dynapyrazole-A: 4.2) ([Firestone et al., 2012]).
Reaction setup: A coverslip-based motility assay was adapted from similar assays reported previously ([Firestone et al., 2012]; [Schmidt et al., 2015]). A flow chamber assembled on a pre-cleaned microscope coverslide (3–5 µL chamber volume) was hydrated with buffer A (25 mM PIPES, 30 mM KCl, 5 mM MgCl2, 1 mM EGTA, 0.01% Triton X-100, 1 mM DTT, 20 µM taxol, pH 7.0 with KOH). Anti-GFP antibody (0.4 mg/mL, affinity purified rabbit antibody) was flowed into the chamber and allowed to adhere non-specifically to the glass for 20 s. The surface was blocked using 0.5 mg/mL α-casein in buffer A. Excess protein was then washed away with buffer A. GFP-dynein motor domain was diluted in buffer A supplemented with 1 mM DTT and 0.1 mM ATP (2 mM DTT final; GFP-dynein 2 diluted to: 180 nM; GFP-dynein 1 diluted to: 60 nM), flowed into the chamber and allowed to bind for 20 s. Excess protein was washed away with buffer A. Reaction mix (25 mM PIPES, 90 mM KCl, 6 mM MgCl2, 1 mM EGTA, 0.01% Triton X-100, 3 mM DTT, 20 µM taxol, 1 mM ATP, 1x oxygen scavenging system components [4.5 mg/mL glucose, 35 µg/mL catalase, 200 µg/mL glucose oxidase], 2% final DMSO [v/v] with compounds at appropriate concentrations, 0.05 mg/mL α-casein, microtubules [rhodamine labeled, purified from bovine brain, GMP-CPP and Taxol-stabilized], pH 7.0 with KOH) was flowed into the chamber using ~4 chamber volumes. For experiments shown in Figure 4—figure supplement 1, α-casein concentration in reaction mix was 0.5 mg/mL and all other parameters were held constant.
For reversibility experiments, motility in the presence of 5 µM 8 was observed as above, and upon completion of imaging, the chamber, fresh buffer A supplemented with 1 mM ATP was flowed into the chamber and incubated for 1 min; this wash and incubation cycle was repeated twice. Reaction mix containing DMSO (no compound) was flowed into the chamber using ~4 chamber volumes. The chamber was sealed with valap and returned to the microscope.
Microscopy conditions: Following addition of reaction mix, microtubules were allowed to bind for 5 min before imaging. For reversibility experiments, microtubules were allowed to bind for 10 min before imaging. […] Velocities were measured using the kymograph tool in FIJI ([Schindelin et al., 2012]). […]
Microtubule velocity measurements: the tracks of microtubules were traced and converted to kymographs (x axis-displacement, y axis-time) using the kymograph function of FIJI (RRID: SCR_002285). The angle formed between an edge of a microtubule and the horizontal was measured. […]

The mark [1] stands for this setting: 1 mM MgATP, 0.05 mg/mL casein, 2% DMSO, read-out: IC50, inhibition of GFP-dynein 1-driven motility.

As for `N#Cc1c(C2(c3ccc(Cl)cc3)CC2)nn2c1[nH]c(=O)c1cc(I)ccc12` [Compound 8, 2-[1-(4-chlorophenyl)cyclopropyl]-7-iodo-5-oxo-4H-pyrazolo[1,5-a]quinazoline-3-carbonitrile], the “Reversibility of inhibition of dynein-1-dependent microtubule gliding after washout” value (5 µM 8, then washout, 1 mM ATP, 0.05 mg/mL casein) is on record as “reversed following washout”. The IC50 (1 mM ATP, 0.5 mg/mL casein, read-out: IC50, inhibition of GFP-dynein 1-driven motility in the presence of 0.5 mg/ml casein) is 10.5 ± 4.6 µM and the IC50 under setting [1] was determined as 2.3 ± 1.4 µM. For the same molecule, the “Potency relative to ciliobrevin D, GFP-dynein-1-driven motility” value (more potent than ciliobrevin D) was ~ 6 fold.

For the molecule `N#C/C(C(=O)c1ccc(Cl)cc1Cl)=C1\NC(=O)c2ccc(Cl)cc2N1` [ciliobrevin D, reference compound], the IC50 under setting [1] was determined as 15 ± 2.9 µM.
